In the NIST ThermoML archive (doi:10.1016/j.fluid.2018.09.023) one finds mass density and Solid-liquid equilibrium temperature data, which are given here for seven compounds.

± gives the expanded uncertainty stated by the source.

Assay in the first series: not given
Particulars: 298.15 K; 101.33 kPa; Liquid; Vibrating tube method.
For `CCOC(=O)OCC` [diethyl carbonate], the mass density came to 969.18 ± 0.07 kg/m3.

With `COC(=O)OC` [dimethyl carbonate], the mass density was determined as 1063.26 ± 0.08 kg/m3.

As to `CCCOC(=O)OCCC` [dipropyl carbonate], the mass density worked out at 938.35 ± 0.13 kg/m3.

With `CCO` [ethanol], the mass density turned out to be 785.02 ± 0.13 kg/m3.

In the case of `CCCO` [propan-1-ol], the mass density is 800.06 ± 0.12 kg/m3.

In the case of `CC(C)O` [propan-2-ol], the mass density stood at 780.79 ± 0.13 kg/m3.

The next series can be described thus: Solid-liquid equilibrium temperature. Particulars: 101 kPa, visual observation.
In the case of `COC(=O)OC` [dimethyl carbonate], the Solid-liquid equilibrium temperature is recorded as 278.11 ± 4 K.

For `O=C(Oc1ccccc1)Oc1ccccc1` [diphenyl carbonate], the Solid-liquid equilibrium temperature was 352.7 ± 4 K.

Broadly, the mass density is the mass of a sample divided by its volume.
